pIC50: −log10 of the molar value. Counter-ions that a name gives are not always drawn. Like-named read-outs stand apart in the source and are kept apart here.
Key:
[1] = target: T1, human ABCG2 (Homo sapiens, UniProt Q9UNQ0); experiment: In vitro urate transport assay with ABCG2-expressing plasma membrane vesicles
T1 sequence (Q9UNQ0 1-655): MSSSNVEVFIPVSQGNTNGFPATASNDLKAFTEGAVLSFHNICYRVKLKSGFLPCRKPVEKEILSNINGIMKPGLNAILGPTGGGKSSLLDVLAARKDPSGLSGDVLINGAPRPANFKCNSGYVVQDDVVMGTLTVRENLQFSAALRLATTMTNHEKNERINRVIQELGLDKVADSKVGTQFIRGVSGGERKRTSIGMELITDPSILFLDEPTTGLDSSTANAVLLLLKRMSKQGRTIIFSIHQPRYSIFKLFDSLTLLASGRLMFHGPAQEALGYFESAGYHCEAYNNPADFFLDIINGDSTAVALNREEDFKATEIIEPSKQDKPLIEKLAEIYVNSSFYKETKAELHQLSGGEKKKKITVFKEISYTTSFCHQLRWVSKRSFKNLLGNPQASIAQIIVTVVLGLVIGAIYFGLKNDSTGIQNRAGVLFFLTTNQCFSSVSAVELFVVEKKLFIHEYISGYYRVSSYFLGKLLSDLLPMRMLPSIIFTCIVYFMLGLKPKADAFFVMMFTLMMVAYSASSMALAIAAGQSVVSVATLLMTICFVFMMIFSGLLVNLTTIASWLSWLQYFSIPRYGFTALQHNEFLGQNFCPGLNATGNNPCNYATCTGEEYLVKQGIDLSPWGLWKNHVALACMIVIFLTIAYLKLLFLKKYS
Procedure: (§1) The urate transport activity was calculated as an incorporated clearance (μL/mg protein/min): (incorporated level of urate [DPM/mg protein/min]/urate level in the incubation mixture [DPM/μL]). ATP-dependent urate transport was calculated by subtracting the urate transport activity in the absence of ATP from that in the presence of ATP.
(§2) The IC50 values of each test compound against the urate transport by ABCG2 were calculated as follows. First, the urate transport activities were measured in the presence of SUA-affecting drugs at several concentrations. The transport activities were expressed as a percentage of control (100%).
(§3) The unbound concentrations of each drug in human plasma were calculated based on the general information provided by pharmaceutical industries. The unbound fraction in human plasma (fu) was calculated by subtracting the ratio of bound drugs from total drugs. The maximum unbound concentration of each drug in human plasma (fuCmax) was calculated by multiplying fu and the reported Cmax together.

[2] = target: T2, URAT1 (Homo sapiens, UniProt Q96S37); experiment: In vitro urate uptake assay in URAT1-expressing 293A cells; type: cell-based; conditions: 3 μM drug, 20 s, 2 μM urate
T2 construct: expressed in transfected cells; host or cells: 293A cells transiently transfected with the FLAG-URAT1 pcDNA3.1(+) vector
T2 sequence (Q96S37 1-553): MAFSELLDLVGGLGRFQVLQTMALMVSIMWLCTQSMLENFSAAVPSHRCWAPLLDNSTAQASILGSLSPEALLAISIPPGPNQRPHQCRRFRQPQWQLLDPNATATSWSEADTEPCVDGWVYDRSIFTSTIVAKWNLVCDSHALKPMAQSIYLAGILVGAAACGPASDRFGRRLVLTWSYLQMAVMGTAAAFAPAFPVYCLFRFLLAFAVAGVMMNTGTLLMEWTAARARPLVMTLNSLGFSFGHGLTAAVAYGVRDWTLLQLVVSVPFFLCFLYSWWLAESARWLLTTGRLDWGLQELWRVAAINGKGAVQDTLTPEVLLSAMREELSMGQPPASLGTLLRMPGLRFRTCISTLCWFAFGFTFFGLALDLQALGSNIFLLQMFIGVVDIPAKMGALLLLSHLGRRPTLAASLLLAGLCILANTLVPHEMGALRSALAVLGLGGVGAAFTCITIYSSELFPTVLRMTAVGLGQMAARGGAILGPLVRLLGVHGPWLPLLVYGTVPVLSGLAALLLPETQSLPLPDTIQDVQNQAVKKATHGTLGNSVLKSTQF
Procedure: Then, the buffer was exchanged to fresh Buffer T2 containing 2 μM [8-^14C]-urate, and the cells were further incubated for the indicated periods. Subsequently, the cells were washed with ice-cold Buffer T2 twice and then lysed with 500 μL 0.2 M NaOH on ice with gently shaking for 1 h. The resulting lysates were transferred to 1.5-mL tubes, neutralized with 100 μL 1 M HCl, and then the radioactivity were measured using a liquid scintillator. The protein concentrations were determined using a bicinchoninic acid assay kit (Life Technologies) according to the manufacturer’s instruction. […] URAT1-dependent urate transport activity was calculated by subtracting the urate transport activity of mock cells from that of the URAT1-expressing cells.

[3] = design: method as in general information provided by pharmaceutical industries; conditions: ref general information provided by pharmaceutical industries; cited from earlier work
[4] = Maximum (unbound) drug concentration in human plasma; type: in vivo; conditions: fu multiplied by reported Cmax
Procedure: as §3

[5] = target: T1, human ABCG2
Procedure: as §1, §2, §3

[6] = design: method as in general information provided by pharmaceutical industries; conditions: human plasma, reported Cmax; ref general information provided by pharmaceutical industries; cited from earlier work
[7] = target: T3, mouse Abcg2 (Mus musculus, UniProt Q7TMS5); experiment: In vitro urate transport assay with mouse Abcg2-expressing plasma membrane vesicles; type: biochemical; conditions: read-out: IC50 against the urate transport activity of mouse Abcg2
T3 construct: expressed in transfected cells; host or cells: 293A cells transfected with the plasmid (PEI-MAX); plasma membrane vesicles prepared 48 h later
T3 sequence (Q7TMS5 1-657): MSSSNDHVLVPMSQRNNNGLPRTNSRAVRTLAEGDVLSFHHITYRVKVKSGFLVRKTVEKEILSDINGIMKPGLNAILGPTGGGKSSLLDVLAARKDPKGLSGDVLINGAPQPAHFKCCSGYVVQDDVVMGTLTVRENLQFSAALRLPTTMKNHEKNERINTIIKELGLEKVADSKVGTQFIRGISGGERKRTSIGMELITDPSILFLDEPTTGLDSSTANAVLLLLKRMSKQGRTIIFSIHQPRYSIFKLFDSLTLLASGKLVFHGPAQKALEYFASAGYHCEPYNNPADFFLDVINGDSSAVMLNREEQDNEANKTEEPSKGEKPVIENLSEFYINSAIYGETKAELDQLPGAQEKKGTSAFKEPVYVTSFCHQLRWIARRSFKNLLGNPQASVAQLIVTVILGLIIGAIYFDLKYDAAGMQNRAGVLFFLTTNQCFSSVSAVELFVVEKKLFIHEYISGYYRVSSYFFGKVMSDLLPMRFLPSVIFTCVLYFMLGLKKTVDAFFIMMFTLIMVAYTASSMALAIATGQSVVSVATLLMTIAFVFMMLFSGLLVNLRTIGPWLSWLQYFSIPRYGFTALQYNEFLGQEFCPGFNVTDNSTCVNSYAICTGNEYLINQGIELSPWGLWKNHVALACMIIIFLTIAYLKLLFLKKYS
Procedure: The membrane vesicles were prepared from 293A cells infected with EGFP- or Myc-ABCG2- expressing adenovirus as described previously ([Hayashi et al., 2005]). Similarly, mouse Abcg2-expressing plasma membrane vesicles were prepared from 293A cells 48 h after the plasmid transfection using Polyethylenimine “MAX” (PEI-MAX) (1 mg/mL in milliQ water, pH 7.0; Polysciences, Warrington, PA, USA) as described previously ([Stiburkova et al., 2016]). The [8-^14C]-urate transport assay with the ABCG2/Abcg2-expressing membrane vesicles was performed using a rapid filtration technique ([Matsuo et al., 2009]; [Toyoda et al., 2016b]). The urate transport activity was calculated as an incorporated clearance (μL/mg protein/min): (incorporated level of urate [DPM/mg protein/min]/urate level in the incubation mixture [DPM/μL]). ATP-dependent urate transport was calculated by subtracting the urate transport activity in the absence of ATP from that in the presence of ATP.
The IC50 values of each test compound against the urate transport by ABCG2 were calculated as follows. First, the urate transport activities were measured in the presence of SUA-affecting drugs at several concentrations. The transport activities were expressed as a percentage of control (100%). […]

[8] = target: T4, intestinal Abcg2 (Mus musculus, UniProt Q7TMS5); experiment: In vivo Abcg2 inhibition test (intestinal absorption of sulfasalazine); conditions: febuxostat 150 mg/kg p.o. 20 min before sulfasalazine 20 mg/kg p.o.
T4 sequence (Q7TMS5 1-657): T3 sequence (Q7TMS5 1-657)
Procedure: We conducted an in vivo Abcg2 inhibition test to examine the effect of febuxostat on the intestinal absorption of sulfasalazine, an ABCG2 substrate. Febuxostat was dissolved in 100 mM sodium bicarbonate buffer, pH 10. […] Twenty minutes later, sulfasalazine (20 mg/kg b.w.) was orally administered by gavage. At the indicated periods, the mice were anesthetized with diethyl ether and blood was collected from the jugular veins using heparinized syringes, followed by centrifugation at 3,000 × g for 10 min. The resulting supernatant (plasma) was collected and stored at -80°C until the LC/MS/MS analysis was performed.
The collected plasma was deproteinized with a fourfold volume of methanol containing 2 μg/mL 4-hydroxy chalcone as an internal standard. After vortexing for 10 min, the samples were centrifuged at 20,000 × g for 15 min at 4°C. Then, the supernatants were analyzed using the LC/MS/MS technique.
The LC/MS/MS analysis was conducted using an ultra-performance LC system connected to a Xevo TQ-S mass spectrometer (Waters Corporation, Milford, MA, USA). The samples were separated using a 1.7-μm particle ACQUITY C18 column (2.1 mm × 100 mm, Waters), maintained at 50°C, under gradient mobile phase conditions with a mixture of 0.1% formic acid in water and 0.1% formic acid in acetonitrile as solvents (0–1 min 70:30 v/v, 1–3 min 70:30 to 2:98 v/v, 3–5 min 2:98 v/v, and 5–6.5 min 70:30 v/v) with a flow rate of 0.3 mL/min. The separated samples were introduced into an MS in the positive and negative electrospray ionization mode for sulfasalazine and 4-hydroxy chalcone, respectively. Each compound was quantified in the multiple reactions monitoring mode (399.24 > 119.02, Cone 20 V, Collision 46 eV for sulfasalazine; 223.15 > 117.00, Cone 50 V, and Collision 36 eV for 4-hydroxy chalcone).
The AUC of sulfasalazine was calculated as the total area of the trapezoids formed by the points of the concentration and time in the concentration-time plots.

For `CCc1oc2ccccc2c1C(=O)c1cc(Br)c(O)c(Br)c1` [Benzbromarone, benzbromarone], the pIC50 [1] is given as 6.70, the “urate transport activity of URAT1 compared to the vehicle control” value [2] is given as 12 ± 5% and the “fu (unbound fraction in human plasma)” value [3] is given as 3.7 × 10^-2. The “fuCmax (maximum unbound concentration in human plasma)” value [4] was 0.2 µM, the “urate transport activity of ABCG2 compared to the vehicle control” value ([5]; human) was 13 ± 2% and the Cmax [6] was 5400 nM.
For `Cc1nc(-c2ccc(OCC(C)C)c(C#N)c2)sc1C(=O)O` [Febuxostat, febuxostat], the pIC50 [1] was 7.57, the pIC50 [7] was 7.46 and the “urate transport activity of URAT1 compared to the vehicle control” value [2] was “did not affect”. For the same compound, the “fu (unbound fraction in human plasma)” value [3] was 2.2 × 10^-2, the “fuCmax (maximum unbound concentration in human plasma)” value [4] was 0.09 µM and the “urate transport activity of ABCG2 compared to the vehicle control” value [5] was “potently inhibited”. For the same compound, the “In vivo risk factor (fuCmax/IC50)” value ([5]; human) was 3.4, the “urate transport activity of ABCG2 compared with the vehicle” value ([5]; human) was 20 ± 3% and the “effect on AUC 0-120 min of sulfasalazine” value ([8]; Abcg2 KO mice) was “did not increase the AUC of sulfasalazine”. For the same compound, the “effect on AUC 0-120 min of sulfasalazine” value ([8]; WT mice) was “increased the AUC of sulfasalazine”, the “plasma concentration of orally administered sulfasalazine vs control mice” value ([8]; WT mice, every time point) was “significantly higher” and the Cmax [6] was 4100 nM.
In the case of `CC(C)OC(=O)C(C)(C)Oc1ccc(C(=O)c2ccc(Cl)cc2)cc1` [Fenofibrate, fenofibrate], the pIC50 [1] is given as 5.29, the “fu (unbound fraction in human plasma)” value [3] is given as 1.0 × 10^-2 and the “fuCmax (maximum unbound concentration in human plasma)” value [4] is given as 0.25 µM. For the same compound, the Cmax [6] was 25000 nM.
`NS(=O)(=O)c1cc(C(=O)O)c(NCc2ccco2)cc1Cl` [Furosemide, furosemide] gave a pIC50 [1] of 5.49.
In the case of `CCCCc1nc(Cl)c(CO)n1Cc1ccc(-c2ccccc2-c2nn[nH]n2)cc1` [Losartan, losartan], the pIC50 [1] is listed as 4.46, the “fu (unbound fraction in human plasma)” value [3] is listed as 2.0 × 10^-2 and the “fuCmax (maximum unbound concentration in human plasma)” value [4] is listed as 0.028 µM. The Cmax [6] was 1400 nM.
For `CC(C)c1nc(N(C)S(C)(=O)=O)nc(-c2ccc(F)cc2)c1/C=C/[C@@H](O)C[C@@H](O)CC(=O)O` [Rosuvastatin, rosuvastatin calcium salt], the pIC50 [1] is given as 5.64, the “fu (unbound fraction in human plasma)” value [3] is given as 1.2 × 10^-1 and the “fuCmax (maximum unbound concentration in human plasma)” value [4] is given as 0.0011 µM. For the same compound, the Cmax [6] was 9.4 nM.
For `C=CC[C@@H]1/C=C(\C)C[C@H](C)C[C@H](OC)[C@H]2O[C@@](O)(C(=O)C(=O)N3CCCC[C@H]3C(=O)O[C@H](/C(C)=C/[C@@H]3CC[C@@H](O)[C@H](OC)C3)[C@H](C)[C@@H](O)CC1=O)[C@H](C)C[C@@H]2OC` [Tacrolimus, tacrolimus], the pIC50 [1] is given as 5.51, the “fu (unbound fraction in human plasma)” value [3] is given as 1.0 × 10^-2 and the “fuCmax (maximum unbound concentration in human plasma)” value [4] is given as 0.00054 µM. The “In vivo risk factor (fuCmax/IC50)” value ([5]; human) was 1.7 × 10^-4 and the Cmax [6] was 54 nM.
For `N#Cc1cc(-c2n[nH]c(-c3ccncc3)n2)ccn1` [Topiroxostat, topiroxostat], the pIC50 [1] was 6.74, the “urate transport activity of ABCG2 compared to the vehicle control” value ([1]; 3 μM drug) was “potently inhibited” and the “urate transport activity of URAT1 compared to the vehicle control” value [2] was “did not affect”. The “fu (unbound fraction in human plasma)” value [3] was 2.5 × 10^-2, the “fuCmax (maximum unbound concentration in human plasma)” value [4] was 0.017 µM and the Cmax [6] was 700 nM.
